What was measured:
P-TEFb = experiment: BiFC assay, YC.P-TEFb coexpressed with YN.CTD in HEK293 cells; format: cell-based; details: for number of YFP-positive cells: versus normal culture conditions
Excerpt: Sequences encoding amino acids 1-154 (YN) and 155-238 (YC) of YFP were amplified and cloned in mammalian expression plasmids. The YN.CTD chimera was constructed by inserting DNA fragments from a 52X heptapeptide (52 X SEQ ID NO: 4 (SEQ ID NO: 7)) CTD coding plasmid with a linker sequence encoding a nuclear localization signal, SEQ ID NO: 5. The YC.PTEFb chimera was constructed by inserting DNA fragments corresponding to P-TEFb into the YC plasmid, with Cdk9 and CycT1 sequences genetically fused to express as a single chimeric polypeptide, that can form a functional P-TEFb molecule. A polynucleotide coding for the linker of SEQ ID NO: 6 was optionally utilized in the constructs, between P-TEFb or CTD sequences and their associated fluorophores fragments. All proteins contained an anti-c-Myc antibody epitope tag at the N termini, and their expression in cells was confirmed by Western blotting using an anti-c-Myc antibody.
(§1) HeLa or HEK293 cells growing in log phase were transfected with plasmid DNA encoding YN.CTD and YC.P-TEFb fusion proteins by use of a lipofection agent. Incorporation of YC.P-TEFb into the 7SK snRNP was confirmed by immunoprecipitation and Western blot analysis with antibodies to the components of the 7SK snRNP.
The BiFC assay was used to detect interactions between released free P-TEFb and its natural substrate, RNA polymerase II CTD. When YC.P-TEFb was coexpressed with YN.CTD in HEK293 cells under normal culture conditions, very few weakly YFP-positive cells were detected. […] Because the emission peak of YFP (527 nm) is similar to that of GFP (509 nm), the BiFC-positive cells appeared green. […] YC.P-TEFb was employed to monitor P-TEFb activation by BiFC in cells.
A time-dependent increase in BiFC signals was monitored by time-lapse fluorescence microscopic analysis. HEK293 cells expressing YC.P-TEFb and YN.CTD were treated with 5 micromolar SAHA, and fluorescent images were taken every 3 min. BiFC signals were detected by 30 min after the addition of SAHA and reached a peak at a time point between 75 and 90 min. At later times, more intense and punctate nuclear staining reflected the accumulation of active P-TEFb in nuclear speckles. This finding is consistent with previous observations of P-TEFb release by SAHA with a consideration of the time required for maturation of the fluorophore.

7SK snRNP = experiment: Immunoprecipitation and Western blot of 7SK snRNP fractions in cells expressing YC.P-TEFb; format: cell-based; details: HeLa or HEK293 cells, SAHA treatment
Excerpt: as §1

Row | Structure (SMILES) | time-dependent increase in BiFC signals (P-TEFb release) (P-TEFb; time-lapse fluorescence microscopy) | number of YFP-positive cells (P-TEFb) | amounts of YC.P-TEFb and endogenous CycT1 proteins in 7SK snRNP fractions (7SK snRNP) | levels of free P-TEFb (7SK snRNP) | time at which BiFC signals were detected after addition (P-TEFb; 5 micromolar, time-lapse fluorescence microscopy, images every 3 min) [min]
1 | Nc1ncn([C@@H]2O[C@H](CO)[C@@H](O)[C@H]2O)c(=O)n1 [AzaC] | released P-TEFb |  |  |  | 
2 | CC(=O)NCCCCCCNC(C)=O [HMBA] |  | increased significantly |  |  | 
3 | O=C(CCCCCCC(=O)Nc1ccccc1)NO [SAHA] |  | increased significantly | reduced | increased | ≤ 30
4 | CN1CCc2c(c3ccccc3n2Cc2ccc(C(=O)NO)cc2)C1 [tubastatin A] |  | did not increase |  |  | 

Reference: patent US20160123957A1, “Visualization of P-TEFb by Fluorescence Complementation” (The Regents of the University of California, priority 2014, published 2016)
